Measurements published in PubChem BioAssay (NCI).
Values joined by “and” are separate entries in the source; they are usually repeats but may differ in a detail not shown here. Identical values can stand only once.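 Five compound concentrations were applied to cells in 96-well plates for 48 hours; endpoints were derived by simple linear interpolation of the resulting dose-response curve. Abbreviation: GI50, concentration required for 50% inhibition of growth. TGI is the concentration that stops growth completely.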

test system: M14 melanoma; experiment: inhibition of tumour cell growth, NCI panel, 48 h

First: CCOC(=O)c1cccc(N=Nc2nc[nH]c2/C=C/C(=O)OC)c1
Second: C=C(C(=O)OCC)C(=O)OCC
The TGI of the first is lower: 49.6 µM for the first, greater than 100 µM for the second.

Clc1ccc(-c2nnc3sc4nc5ccccc5c-4nn23)c(Cl)c1 and O=C1c2cc(-c3ccccc3)cnc2S(=O)(=O)N1c1ccc(Br)cc1 cannot be ordered by TGI: greater than 100 µM for the first, greater than 100 µM for the second.

Compared with CCCCCCCCCCCCCCCCNc1cccc2ccccc12, CCCCCCCCCCCC[S+](C)C is lower in TGI: greater than 100 µM for the first, 19.9 µM for the second.

O=C1OCC/C1=N/O and CC(O)CNC(=O)C(C)Oc1ccc(OCC2CCCCC2)cc1 (configuration not stated) cannot be ordered by TGI: greater than 100 µM for the first, greater than 100 µM for the second.

Going from N#CC(C#N)=C1SC(=Nc2ccccc2)C(=Nc2ccccc2)N1c1ccccc1 to CC(=NNC(=S)Nc1ccccc1)c1cccc(C(C)=NNC(=S)Nc2ccccc2)n1, the TGI falls from 54.7 µM to 21.2 µM (2.6-fold).

Cc1ccc(S(=O)(=O)n2c3c(c4ccccc42)CCN2C[C@H]([C@H](C)Br)CC[C@@H]32)cc1 and O=P(O)(O)C(N=C(Nc1ccccc1)Nc1ccccc1)P(=O)(O)O cannot be ordered by TGI: greater than 100 µM for the first, greater than 100 µM for the second.

First: COC1=CC(=O)c2c(c(-c3nc(C)cs3)cn2C)C1=O
Second: CC(C)(C)[Si](C)(C)OCC1OC(n2ccc(=O)[nH]c2=O)C(O[Si](C)(C)C(C)(C)C)/C1=C/C#N (configuration not stated)
The TGI of the first is lower: 7.39 µM for the first, greater than 100 µM for the second.

First: CCOS(C)(=O)=O
Second: CC(C)SC(=S)Sc1c(Cl)c(Cl)nc(Cl)c1Cl
The TGI of the first is higher: greater than 100 µM for the first, 26.7 µM for the second.

test system: UO-31 renal; experiment: inhibition of tumour cell growth, NCI panel, 48 h

Cc1ccc(/C=N\NC2c3cc(Cl)ccc3Nc3nc(=O)[nH]c(C)c32)cc1 (configuration not stated) and Clc1ccc(-c2nnc3sc4nc5ccccc5c-4nn23)c(Cl)c1 cannot be ordered by TGI: greater than 100 µM for the first, greater than 100 µM for the second.

O=C(O)COc1ccccc1C(=O)Nc1ccccc1 and O=P(O)(O)C(N=C(Nc1ccccc1)Nc1ccccc1)P(=O)(O)O cannot be ordered by TGI: greater than 100 µM for the first, greater than 100 µM for the second.

First: O=C(/C=C/c1ccccc1)Oc1ccc(C(=O)/C=C/c2ccccc2)cc1
Second: N#CC(C#N)=C1SC(=Nc2ccccc2)C(=Nc2ccccc2)N1c1ccccc1
The TGI of the first is 1.7-fold lower: 15.3 µM for the first, 25.3 µM for the second.

Going from COc1cc2c(cc1OC)C(C(c1ccccc1)c1ccccc1)N(C)CC2 (configuration not stated) to C[N+](C)([O-])CCOc1cc2c(c3ccccc13)-c1ccccc1C2=O, the TGI falls from greater than 100 µM to 40 µM.

CCOC(=O)C1S/C(=N\C(=N)N[N+](=O)[O-])N=C1C (configuration not stated) and C=C(C(=O)OCC)C(=O)OCC cannot be ordered by TGI: greater than 100 µM for the first, greater than 100 µM for the second.

C/C(C[n+]1ccccc1)=N\N=C(N)N and CCOC(=O)c1cccc(N=Nc2nc[nH]c2/C=C/C(=O)OC)c1 cannot be ordered by TGI: greater than 100 µM for the first, greater than 100 µM for the second.

O=[N+]([O-])C(=C(Nc1cccc2cccnc12)Nc1cccc2cccnc12)C(Cl)=C(Cl)Cl and CC(=NNC(=S)Nc1ccccc1)c1cccc(C(C)=NNC(=S)Nc2ccccc2)n1 cannot be ordered by TGI: greater than 100 µM for the first, greater than 52.1 µM for the second.

Compared with NS(=O)(=O)c1ccc(NC(=S)/N=C/C2=C(O)c3ccccc3C2=O)cc1, Cc1ccc(S(=O)(=O)n2c3c(c4ccccc42)CCN2C[C@H]([C@H](C)Br)CC[C@@H]32)cc1 is higher in TGI: 85.6 µM for the first, greater than 100 µM for the second.

Cc1nc(C)c(C(=O)NNC(=O)C[N+](C)(C)C)cc1C(=O)NNC(=O)C[N+](C)(C)C and CC(C)(C)[Si](C)(C)OCC1OC(n2ccc(=O)[nH]c2=O)C(O[Si](C)(C)C(C)(C)C)/C1=C/C#N (configuration not stated) cannot be ordered by TGI: greater than 100 µM for the first, greater than 100 µM for the second.

NCCCN1c2ccccc2Sc2ccc(Cl)cc21 and O=C1c2cc(-c3ccccc3)cnc2S(=O)(=O)N1c1ccc(Br)cc1 cannot be ordered by TGI: greater than 10 µM for the first, greater than 100 µM for the second.

Compared with CCCCCCCCCCCCCCCCNc1cccc2ccccc12, CCCCCCCCCCCC[S+](C)C is lower in TGI: greater than 100 µM for the first, 27.2 µM for the second.

O=C1OCC/C1=N/O and CC(O)CNC(=O)C(C)Oc1ccc(OCC2CCCCC2)cc1 (configuration not stated) cannot be ordered by TGI: greater than 100 µM for the first, greater than 100 µM for the second.

Going from COC1=CC(=O)c2c(c(-c3nc(C)cs3)cn2C)C1=O to CC(C)SC(=S)Sc1c(Cl)c(Cl)nc(Cl)c1Cl, the TGI falls from greater than 91.2 µM to 21.2 µM.

With CCOS(C)(=O)=O the TGI was greater than 100 µM.

In the case of CCOC(=O)N1CCC(N[C@@H]2c3cc4c(cc3C(c3cc(OC)c(O)c(OC)c3)C3C(=O)OC[C@@H]32)OCO4)CC1 (some centres not stated), the TGI was 3.21 µM and 4.14 µM.

test system: DMS 114 small cell lung; experiment: inhibition of tumour cell growth, NCI panel, 48 h

First: Cc1ccc(/C=N\NC2c3cc(Cl)ccc3Nc3nc(=O)[nH]c(C)c32)cc1 (configuration not stated)
Second: C[N+](C)([O-])CCOc1cc2c(c3ccccc13)-c1ccccc1C2=O
The TGI of the first is higher: greater than 100 µM for the first, 24.7 µM for the second.

COc1cc2c(cc1OC)C(C(c1ccccc1)c1ccccc1)N(C)CC2 (configuration not stated) and CCCCCCCCCCCCCCCCNc1cccc2ccccc12 cannot be ordered by TGI: greater than 100 µM for the first, greater than 100 µM for the second.

CCOC(=O)C1S/C(=N\C(=N)N[N+](=O)[O-])N=C1C (configuration not stated) and CC(O)CNC(=O)C(C)Oc1ccc(OCC2CCCCC2)cc1 (configuration not stated) cannot be ordered by TGI: greater than 100 µM for the first, greater than 100 µM for the second.

First: O=C1OCC/C1=N/O
Second: CCCCCCCCCCCC[S+](C)C
The TGI of the first is higher: greater than 100 µM for the first, 13.4 µM for the second.

For CCOC(=O)N1CCC(N[C@@H]2c3cc4c(cc3C(c3cc(OC)c(O)c(OC)c3)C3C(=O)OC[C@@H]32)OCO4)CC1 (some centres not stated), the GI50 was 1.9 µM and 0.747 µM.

In the case of CCOC(=O)N1CCC(N[C@@H]2c3cc4c(cc3C(c3cc(OC)c(O)c(OC)c3)C3C(=O)OC[C@@H]32)OCO4)CC1 (some centres not stated), the TGI was 12.4 µM and 4.81 µM.

test system: HOP-18 NSCLC; experiment: inhibition of tumour cell growth, NCI panel, 48 h

COc1cc2c(cc1OC)C(C(c1ccccc1)c1ccccc1)N(C)CC2 (configuration not stated) and C[N+](C)([O-])CCOc1cc2c(c3ccccc13)-c1ccccc1C2=O cannot be ordered by TGI: greater than 100 µM for the first, greater than 100 µM for the second.

CCOC(=O)C1S/C(=N\C(=N)N[N+](=O)[O-])N=C1C (configuration not stated) and CC(O)CNC(=O)C(C)Oc1ccc(OCC2CCCCC2)cc1 (configuration not stated) cannot be ordered by TGI: greater than 100 µM for the first, greater than 100 µM for the second.

Compared with O=C1OCC/C1=N/O, CCCCCCCCCCCC[S+](C)C is lower in TGI: greater than 100 µM for the first, 14.9 µM for the second.

test system: SNB-19 CNS; experiment: inhibition of tumour cell growth, NCI panel, 48 h

Cc1ccc(/C=N\NC2c3cc(Cl)ccc3Nc3nc(=O)[nH]c(C)c32)cc1 (configuration not stated) and O=C(O)COc1ccccc1C(=O)Nc1ccccc1 cannot be ordered by TGI: greater than 100 µM for the first, greater than 100 µM for the second.
